Experimental data taken from the kinase profiling compilation of Christmann-Franck et al. (2016).

Columns and labels:
Test in all cases: KINOMEscan competition binding
Settings in all cases: compound 10.0 µM
RPS6KA2 KD1 (human) = RPS6KA2 KD1 (human) (UniProt Q15349)
LYN (human) = LYN (human) (UniProt P07948)
PRKG1 (human) = PRKG1 (human) (UniProt Q13976)
[1] = system: EGFR (human), P00533 [752-759 del]
[2] = system: EGFR (human), P00533 [747-751 del / S ins]
SYK (human) = SYK (human) (UniProt P43405)
HIPK4 (human) = HIPK4 (human) (UniProt Q8NE63)
CDK8 (human) = CDK8 (human) (UniProt P49336)
Chain of CDK8 (human) (P49336 whole entry, looked up): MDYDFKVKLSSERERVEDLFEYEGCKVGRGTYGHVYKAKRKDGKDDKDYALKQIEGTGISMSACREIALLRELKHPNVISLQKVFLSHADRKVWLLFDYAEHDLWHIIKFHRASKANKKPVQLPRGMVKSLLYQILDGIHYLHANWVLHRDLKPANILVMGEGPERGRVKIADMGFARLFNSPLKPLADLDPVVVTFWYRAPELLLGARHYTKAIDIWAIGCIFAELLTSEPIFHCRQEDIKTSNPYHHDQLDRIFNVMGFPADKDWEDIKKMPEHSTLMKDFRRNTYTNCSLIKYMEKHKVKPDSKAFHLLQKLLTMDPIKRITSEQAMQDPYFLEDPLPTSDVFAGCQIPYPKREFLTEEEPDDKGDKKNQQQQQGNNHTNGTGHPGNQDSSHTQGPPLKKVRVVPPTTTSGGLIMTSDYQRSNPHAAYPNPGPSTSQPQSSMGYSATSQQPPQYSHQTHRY

MAPK6 (human) = MAPK6 (human) (UniProt Q16659)
PRKD1 (human) = PRKD1 (human) (UniProt Q15139)
ADCK3 (human) = ADCK3 (human) (UniProt Q8NI60)
PAK7 (human) = PAK7 (human) (UniProt Q9P286)
Chain of PAK7 (human) (Q9P286 whole entry, looked up): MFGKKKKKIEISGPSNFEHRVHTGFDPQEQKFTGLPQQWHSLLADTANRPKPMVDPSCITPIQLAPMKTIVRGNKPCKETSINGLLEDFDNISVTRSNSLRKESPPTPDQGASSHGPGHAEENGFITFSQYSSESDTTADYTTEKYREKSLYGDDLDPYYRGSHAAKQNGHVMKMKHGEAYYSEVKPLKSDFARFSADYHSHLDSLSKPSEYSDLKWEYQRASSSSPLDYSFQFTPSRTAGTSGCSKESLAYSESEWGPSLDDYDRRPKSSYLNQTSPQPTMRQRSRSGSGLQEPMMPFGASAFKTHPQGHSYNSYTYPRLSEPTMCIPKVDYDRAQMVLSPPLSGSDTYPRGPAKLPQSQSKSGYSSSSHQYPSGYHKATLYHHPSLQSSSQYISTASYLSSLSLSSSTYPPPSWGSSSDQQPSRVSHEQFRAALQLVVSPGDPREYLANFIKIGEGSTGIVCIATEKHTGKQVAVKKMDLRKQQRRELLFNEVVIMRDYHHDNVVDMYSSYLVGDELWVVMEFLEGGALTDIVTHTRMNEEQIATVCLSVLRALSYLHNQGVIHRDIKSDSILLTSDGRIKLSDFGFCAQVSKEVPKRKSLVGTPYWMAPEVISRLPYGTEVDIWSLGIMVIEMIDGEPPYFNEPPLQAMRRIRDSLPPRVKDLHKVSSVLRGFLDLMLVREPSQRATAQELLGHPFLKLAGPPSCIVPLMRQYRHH

CDK18 (human) = CDK18 (human) (UniProt Q07002)
AAK1 (human) = AAK1 (human) (UniProt Q2M2I8)
EPHA3 (human) = EPHA3 (human) (UniProt P29320)
STK33 (human) = STK33 (human) (UniProt Q9BYT3)
STK39 (human) = STK39 (human) (UniProt Q9UEW8)
PRKCI (human) = PRKCI (human) (UniProt P41743)
Chain of PRKCI (human) (P41743 whole entry, looked up): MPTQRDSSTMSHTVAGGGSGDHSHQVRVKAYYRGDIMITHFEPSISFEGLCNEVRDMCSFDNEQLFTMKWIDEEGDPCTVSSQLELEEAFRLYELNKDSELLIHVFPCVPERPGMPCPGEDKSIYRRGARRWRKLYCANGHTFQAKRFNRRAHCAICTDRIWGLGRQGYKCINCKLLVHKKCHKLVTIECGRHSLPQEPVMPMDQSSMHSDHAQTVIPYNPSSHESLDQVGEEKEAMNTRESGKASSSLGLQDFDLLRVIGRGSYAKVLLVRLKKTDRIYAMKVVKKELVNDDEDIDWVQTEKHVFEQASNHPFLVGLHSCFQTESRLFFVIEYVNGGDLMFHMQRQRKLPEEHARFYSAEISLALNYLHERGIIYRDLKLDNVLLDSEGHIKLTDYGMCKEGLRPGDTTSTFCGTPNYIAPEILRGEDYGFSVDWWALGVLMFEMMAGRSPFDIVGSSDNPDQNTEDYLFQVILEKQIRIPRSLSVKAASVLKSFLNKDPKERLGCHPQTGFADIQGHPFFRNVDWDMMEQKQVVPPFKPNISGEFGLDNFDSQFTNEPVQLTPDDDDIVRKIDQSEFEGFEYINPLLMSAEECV

RET (human) = RET (human) (UniProt P07949)
[3] = system: RET (human), P07949 [M918T]
SRC (human) = SRC (human) (UniProt P12931)
Chain of SRC (human) (P12931 whole entry, looked up): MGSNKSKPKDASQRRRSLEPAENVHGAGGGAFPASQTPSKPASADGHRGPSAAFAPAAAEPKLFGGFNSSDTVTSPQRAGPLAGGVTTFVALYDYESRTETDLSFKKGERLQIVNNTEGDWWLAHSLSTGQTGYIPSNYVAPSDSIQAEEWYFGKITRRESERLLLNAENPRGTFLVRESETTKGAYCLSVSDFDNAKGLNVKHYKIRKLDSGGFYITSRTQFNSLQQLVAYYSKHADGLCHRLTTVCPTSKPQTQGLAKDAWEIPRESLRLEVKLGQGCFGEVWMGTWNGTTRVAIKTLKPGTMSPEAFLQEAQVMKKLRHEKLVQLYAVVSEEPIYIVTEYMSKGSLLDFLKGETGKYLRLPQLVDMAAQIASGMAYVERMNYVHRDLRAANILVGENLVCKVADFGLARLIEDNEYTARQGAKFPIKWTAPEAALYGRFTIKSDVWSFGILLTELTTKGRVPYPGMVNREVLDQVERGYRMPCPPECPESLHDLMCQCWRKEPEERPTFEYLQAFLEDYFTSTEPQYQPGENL

NUAK2 (human) = NUAK2 (human) (UniProt Q9H093)
CDK4 CCND1 (human) = CDK4 CCND1 (human) (UniProt P11802+P24385)
Chain of CDK4 CCND1 (human) (P11802 whole entry, looked up): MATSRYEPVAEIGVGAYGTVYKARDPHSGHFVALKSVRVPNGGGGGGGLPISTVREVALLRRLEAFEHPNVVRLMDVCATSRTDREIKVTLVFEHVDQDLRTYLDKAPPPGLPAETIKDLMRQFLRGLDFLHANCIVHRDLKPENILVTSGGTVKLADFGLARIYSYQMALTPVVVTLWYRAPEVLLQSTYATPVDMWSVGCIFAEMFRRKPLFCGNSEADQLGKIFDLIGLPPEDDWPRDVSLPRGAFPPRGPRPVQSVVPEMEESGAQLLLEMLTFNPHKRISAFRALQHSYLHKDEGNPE
Chain of CDK4 CCND1 (human) (P24385 whole entry, looked up): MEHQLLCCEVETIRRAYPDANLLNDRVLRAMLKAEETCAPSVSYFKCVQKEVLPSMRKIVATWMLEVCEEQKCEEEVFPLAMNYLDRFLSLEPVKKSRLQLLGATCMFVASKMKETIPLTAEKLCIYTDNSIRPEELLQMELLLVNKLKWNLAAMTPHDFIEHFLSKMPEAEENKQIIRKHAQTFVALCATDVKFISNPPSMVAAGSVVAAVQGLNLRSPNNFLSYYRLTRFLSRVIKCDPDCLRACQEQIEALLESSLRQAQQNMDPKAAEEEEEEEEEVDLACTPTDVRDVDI

MAP2K2 (human) = MAP2K2 (human) (UniProt P36507)
ERBB4 (human) = ERBB4 (human) (UniProt Q15303)
NEK6 (human) = NEK6 (human) (UniProt Q9HC98)
MAPK1 (human) = MAPK1 (human) (UniProt P28482)
TSSK1B (human) = TSSK1B (human) (UniProt Q9BXA7)
CDK17 (human) = CDK17 (human) (UniProt Q00537)
CDK11B (human) = CDK11B (human) (UniProt P21127)
Chain of CDK11B (human) (P21127 whole entry, looked up): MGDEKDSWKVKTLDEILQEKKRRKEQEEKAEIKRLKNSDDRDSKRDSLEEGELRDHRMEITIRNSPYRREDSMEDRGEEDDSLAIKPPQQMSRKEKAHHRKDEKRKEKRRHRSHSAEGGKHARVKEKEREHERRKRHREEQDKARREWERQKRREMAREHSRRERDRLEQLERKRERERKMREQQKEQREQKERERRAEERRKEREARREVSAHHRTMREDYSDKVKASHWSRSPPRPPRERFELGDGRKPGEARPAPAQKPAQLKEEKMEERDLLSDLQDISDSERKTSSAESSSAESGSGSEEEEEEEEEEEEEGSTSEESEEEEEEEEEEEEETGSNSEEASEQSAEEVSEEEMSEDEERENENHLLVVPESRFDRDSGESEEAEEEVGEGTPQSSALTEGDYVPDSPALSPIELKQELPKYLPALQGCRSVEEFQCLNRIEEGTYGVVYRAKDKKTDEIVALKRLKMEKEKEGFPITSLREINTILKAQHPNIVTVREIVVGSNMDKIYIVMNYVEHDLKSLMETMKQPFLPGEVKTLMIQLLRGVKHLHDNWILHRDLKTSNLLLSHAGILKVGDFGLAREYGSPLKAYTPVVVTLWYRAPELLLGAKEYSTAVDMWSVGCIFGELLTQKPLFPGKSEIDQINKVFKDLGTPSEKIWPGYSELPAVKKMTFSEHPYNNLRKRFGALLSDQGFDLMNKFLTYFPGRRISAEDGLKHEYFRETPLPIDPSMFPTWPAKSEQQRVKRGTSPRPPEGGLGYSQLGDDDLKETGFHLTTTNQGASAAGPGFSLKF

MAPK9 (human) = MAPK9 (human) (UniProt P45984)
INSR (human) = INSR (human) (UniProt P06213)
MAST1 (human) = MAST1 (human) (UniProt Q9Y2H9)
NEK3 (human) = NEK3 (human) (UniProt P51956)
Chain of NEK3 (human) (P51956 whole entry, looked up): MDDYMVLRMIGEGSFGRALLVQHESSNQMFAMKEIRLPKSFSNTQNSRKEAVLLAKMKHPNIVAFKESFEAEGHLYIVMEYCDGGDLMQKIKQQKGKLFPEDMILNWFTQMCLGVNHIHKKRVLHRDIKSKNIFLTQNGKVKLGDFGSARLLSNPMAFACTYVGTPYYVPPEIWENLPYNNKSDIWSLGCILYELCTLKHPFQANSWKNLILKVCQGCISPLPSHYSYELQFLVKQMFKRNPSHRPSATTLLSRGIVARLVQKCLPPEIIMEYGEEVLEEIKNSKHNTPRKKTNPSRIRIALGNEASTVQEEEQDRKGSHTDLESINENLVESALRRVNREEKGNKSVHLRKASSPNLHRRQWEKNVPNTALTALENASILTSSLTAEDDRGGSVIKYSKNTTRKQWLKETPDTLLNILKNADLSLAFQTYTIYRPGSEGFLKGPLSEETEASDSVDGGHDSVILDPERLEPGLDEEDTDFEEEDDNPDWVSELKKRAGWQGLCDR

CDKL2 (human) = CDKL2 (human) (UniProt Q92772)
DCLK1 (human) = DCLK1 (human) (UniProt O15075)
ERBB2 (human) = ERBB2 (human) (UniProt P04626)
PLK1 (human) = PLK1 (human) (UniProt P53350)
RPS6KA5 KD1 (human) = RPS6KA5 KD1 (human) (UniProt O75582)
SIK3 (human) = SIK3 (human) (UniProt Q9Y2K2)

Chain of PRKG1 (human) (Q13976 whole entry, looked up): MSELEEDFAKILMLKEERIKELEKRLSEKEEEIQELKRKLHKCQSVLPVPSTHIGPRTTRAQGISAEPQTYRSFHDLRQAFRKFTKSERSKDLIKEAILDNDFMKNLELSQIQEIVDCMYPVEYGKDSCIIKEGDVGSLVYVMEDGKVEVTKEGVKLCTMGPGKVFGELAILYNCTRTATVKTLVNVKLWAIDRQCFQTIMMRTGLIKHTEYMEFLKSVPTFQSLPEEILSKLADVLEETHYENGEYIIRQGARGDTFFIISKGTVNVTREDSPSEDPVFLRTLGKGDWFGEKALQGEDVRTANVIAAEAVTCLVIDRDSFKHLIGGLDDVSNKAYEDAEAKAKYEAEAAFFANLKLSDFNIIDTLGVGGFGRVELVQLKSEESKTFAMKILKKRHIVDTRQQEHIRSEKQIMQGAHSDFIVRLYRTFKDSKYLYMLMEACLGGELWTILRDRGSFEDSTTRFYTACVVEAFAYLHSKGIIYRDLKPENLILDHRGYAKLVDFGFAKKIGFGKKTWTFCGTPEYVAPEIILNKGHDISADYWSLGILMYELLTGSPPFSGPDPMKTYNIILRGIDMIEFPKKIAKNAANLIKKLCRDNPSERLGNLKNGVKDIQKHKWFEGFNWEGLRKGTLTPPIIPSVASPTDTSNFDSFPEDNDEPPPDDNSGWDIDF

`C=CC(=O)Nc1cc(-n2c(=O)ccc3cnc4ccc(-c5cn[nH]c5)cc4c32)ccc1C` was tested, and the kinase still bound, per cent of control (RPS6KA2 KD1 (human)) was 72%, the kinase still bound, per cent of control (LYN (human)) was 100% and the kinase still bound, per cent of control (PRKG1 (human)) was 91%. The kinase still bound, per cent of control [1] was 23%, the kinase still bound, per cent of control [2] was 63% and the kinase still bound, per cent of control (SYK (human)) was 100%. For the same molecule, the kinase still bound, per cent of control (HIPK4 (human)) was 51%, the kinase still bound, per cent of control (CDK8 (human)) was 93% and the kinase still bound, per cent of control (MAPK6 (human)) was 95%. For the same molecule, the kinase still bound, per cent of control (PRKD1 (human)) was 100%, the kinase still bound, per cent of control (ADCK3 (human)) was 91% and the kinase still bound, per cent of control (PAK7 (human)) was 95%. The kinase still bound, per cent of control (CDK18 (human)) was 88%, the kinase still bound, per cent of control (AAK1 (human)) was 18% and the kinase still bound, per cent of control (EPHA3 (human)) was 100%. For the same molecule, the kinase still bound, per cent of control (STK33 (human)) was 100%, the kinase still bound, per cent of control (STK39 (human)) was 64% and the kinase still bound, per cent of control (PRKCI (human)) was 99%. It also gave a kinase still bound, per cent of control (RET (human)) of 55%, a kinase still bound, per cent of control [3] of 51% and a kinase still bound, per cent of control (SRC (human)) of 100%. The kinase still bound, per cent of control (NUAK2 (human)) was 46%, the kinase still bound, per cent of control (CDK4 CCND1 (human)) was 100% and the kinase still bound, per cent of control (MAP2K2 (human)) was 83%. The kinase still bound, per cent of control (ERBB4 (human)) was 22%, the kinase still bound, per cent of control (NEK6 (human)) was 92% and the kinase still bound, per cent of control (MAPK1 (human)) was 100%. The kinase still bound, per cent of control (TSSK1B (human)) was 87%, the kinase still bound, per cent of control (CDK17 (human)) was 92% and the kinase still bound, per cent of control (CDK11B (human)) was 100%. It also gave a kinase still bound, per cent of control (MAPK9 (human)) of 9.6%, a kinase still bound, per cent of control (INSR (human)) of 90% and a kinase still bound, per cent of control (MAST1 (human)) of 85%. It also gave a kinase still bound, per cent of control (NEK3 (human)) of 77%, a kinase still bound, per cent of control (CDKL2 (human)) of 17% and a kinase still bound, per cent of control (DCLK1 (human)) of 94%. For the same molecule, the kinase still bound, per cent of control (ERBB2 (human)) was 42%, the kinase still bound, per cent of control (PLK1 (human)) was 80% and the kinase still bound, per cent of control (RPS6KA5 KD1 (human)) was 100%. The kinase still bound, per cent of control (SIK3 (human)) was 78%.
`CCN1CCN(C(=O)Cc2ccc(Nc3ncc(F)c(Nc4ccc(C(=O)Nc5ccccc5Cl)cc4)n3)cc2)CC1` gave a kinase still bound, per cent of control (RPS6KA2 KD1 (human)) of 65%, a kinase still bound, per cent of control (LYN (human)) of 46% and a kinase still bound, per cent of control (PRKG1 (human)) of 100%. For the same molecule, the kinase still bound, per cent of control [1] was 56%, the kinase still bound, per cent of control [2] was 47% and the kinase still bound, per cent of control (SYK (human)) was 33%. For the same molecule, the kinase still bound, per cent of control (HIPK4 (human)) was 2.4%, the kinase still bound, per cent of control (CDK8 (human)) was 46% and the kinase still bound, per cent of control (MAPK6 (human)) was 21%. It also gave a kinase still bound, per cent of control (PRKD1 (human)) of 100%, a kinase still bound, per cent of control (ADCK3 (human)) of 43% and a kinase still bound, per cent of control (PAK7 (human)) of 56%. For the same molecule, the kinase still bound, per cent of control (CDK18 (human)) was 43%, the kinase still bound, per cent of control (AAK1 (human)) was 7% and the kinase still bound, per cent of control (EPHA3 (human)) was 62%. For the same molecule, the kinase still bound, per cent of control (STK33 (human)) was 35%, the kinase still bound, per cent of control (STK39 (human)) was 100% and the kinase still bound, per cent of control (PRKCI (human)) was 77%. The kinase still bound, per cent of control (RET (human)) was 1.8%, the kinase still bound, per cent of control [3] was 0.55% and the kinase still bound, per cent of control (SRC (human)) was 18%. The kinase still bound, per cent of control (NUAK2 (human)) was 23%, the kinase still bound, per cent of control (CDK4 CCND1 (human)) was 34% and the kinase still bound, per cent of control (MAP2K2 (human)) was 57%. It also gave a kinase still bound, per cent of control (ERBB4 (human)) of 53%, a kinase still bound, per cent of control (NEK6 (human)) of 8.4% and a kinase still bound, per cent of control (MAPK1 (human)) of 100%. It also gave a kinase still bound, per cent of control (TSSK1B (human)) of 100%, a kinase still bound, per cent of control (CDK17 (human)) of 35% and a kinase still bound, per cent of control (CDK11B (human)) of 87%. The kinase still bound, per cent of control (MAPK9 (human)) was 0.75%, the kinase still bound, per cent of control (INSR (human)) was 78% and the kinase still bound, per cent of control (MAST1 (human)) was 100%. The kinase still bound, per cent of control (NEK3 (human)) was 60%, the kinase still bound, per cent of control (CDKL2 (human)) was 24% and the kinase still bound, per cent of control (DCLK1 (human)) was 74%. For the same molecule, the kinase still bound, per cent of control (ERBB2 (human)) was 100%, the kinase still bound, per cent of control (PLK1 (human)) was 94% and the kinase still bound, per cent of control (RPS6KA5 KD1 (human)) was 100%. For the same molecule, the kinase still bound, per cent of control (SIK3 (human)) was 68%.
Molecule `COc1ccc(N(C(=O)Oc2c(C)cccc2C)c2ccnc(Nc3ccc(N4CCN(C)CC4)cc3)n2)c(OC)c1` has a kinase still bound, per cent of control (RPS6KA2 KD1 (human)) of 27%, a kinase still bound, per cent of control (LYN (human)) of 0% and a kinase still bound, per cent of control (PRKG1 (human)) of 100%. For the same molecule, the kinase still bound, per cent of control [1] was 1%, the kinase still bound, per cent of control [2] was 0% and the kinase still bound, per cent of control (SYK (human)) was 1.4%. It also gave a kinase still bound, per cent of control (HIPK4 (human)) of 8.8%, a kinase still bound, per cent of control (CDK8 (human)) of 100% and a kinase still bound, per cent of control (MAPK6 (human)) of 100%. For the same molecule, the kinase still bound, per cent of control (PRKD1 (human)) was 9.3%, the kinase still bound, per cent of control (ADCK3 (human)) was 26% and the kinase still bound, per cent of control (PAK7 (human)) was 82%. For the same molecule, the kinase still bound, per cent of control (CDK18 (human)) was 100%, the kinase still bound, per cent of control (AAK1 (human)) was 13% and the kinase still bound, per cent of control (EPHA3 (human)) was 9.4%. For the same molecule, the kinase still bound, per cent of control (STK33 (human)) was 28%, the kinase still bound, per cent of control (STK39 (human)) was 100% and the kinase still bound, per cent of control (PRKCI (human)) was 62%. It also gave a kinase still bound, per cent of control (RET (human)) of 0.1%, a kinase still bound, per cent of control [3] of 0.1% and a kinase still bound, per cent of control (SRC (human)) of 0.05%. It also gave a kinase still bound, per cent of control (NUAK2 (human)) of 9.8%, a kinase still bound, per cent of control (CDK4 CCND1 (human)) of 5.4% and a kinase still bound, per cent of control (MAP2K2 (human)) of 46%. It also gave a kinase still bound, per cent of control (ERBB4 (human)) of 0.75%, a kinase still bound, per cent of control (NEK6 (human)) of 96% and a kinase still bound, per cent of control (MAPK1 (human)) of 87%. It also gave a kinase still bound, per cent of control (TSSK1B (human)) of 87%, a kinase still bound, per cent of control (CDK17 (human)) of 80% and a kinase still bound, per cent of control (CDK11B (human)) of 58%. The kinase still bound, per cent of control (MAPK9 (human)) was 2.6%, the kinase still bound, per cent of control (INSR (human)) was 100% and the kinase still bound, per cent of control (MAST1 (human)) was 100%. For the same molecule, the kinase still bound, per cent of control (NEK3 (human)) was 100%, the kinase still bound, per cent of control (CDKL2 (human)) was 0.5% and the kinase still bound, per cent of control (DCLK1 (human)) was 84%. For the same molecule, the kinase still bound, per cent of control (ERBB2 (human)) was 15%, the kinase still bound, per cent of control (PLK1 (human)) was 100% and the kinase still bound, per cent of control (RPS6KA5 KD1 (human)) was 100%. The kinase still bound, per cent of control (SIK3 (human)) was 22%.
